According to PMC3583384 (Journal of medicinal chemistry, 2012):
Entries after “also recorded” stand apart in the source; their conditions may differ. Like-named read-outs stand apart in the source and are kept apart here.

Experiments:
rats = conditions: cited from earlier work
[1] = test system: rats with normal iron stores; conditions: for BUN / SCr: rats po 237 µmol/kg b.i.d. × 7 d (6: euthanized day 8)
[2] = test system: non-iron-overloaded bile duct-cannulated rats; conditions: rats po 150 µmol/kg, cited from earlier work; for relative percentages of the iron excreted in the bile and urine [bile/urine]: Cremophor RH-40/water
iron overloaded primates [3] = conditions: cited from earlier work
iron overloaded primates [4] = conditions: primates po 75 µmol/kg, monosodium salt
patients = conditions: clinical trial, twice daily dosing; cited from earlier work
[5] = Ligand-plasma binding, rodent plasma; assay type: in vitro ADME; conditions: 37 °C, 4 h, 3,000 MWCO filter
[6] = Ligand-plasma binding, primate plasma; assay type: in vitro ADME; conditions: 37 °C, 4 h, 3,000 MWCO filter
[7] = cited from earlier work

COCCOCCOCCOc1ccc(C2=N[C@@](C)(C(=O)O)CS2)c(O)c1 [Compound 4, (S)-4,5-dihydro-2-[2-hydroxy-4-(3,6,9-trioxadecyloxy)]-4-methyl-4-thiazolecarboxylic acid]
nephrotoxicity (rats; rats po once or twice daily): virtually nephrotoxicity-free

COCCOCCOc1cnc(C2=N[C@@](C)(C(=O)[O-])CS2)c(O)c1.[Na+] [Compound 8, (S)-4,5-dihydro-2-[3-hydroxy-5-(3,6-dioxaheptyloxy)-2-pyridinyl]-4-methyl-4-thiazolecarboxylic acid]
BUN [1]: well within the normal range | SCr [1]: well within the normal range

C[C@]1(C(=O)[O-])CSC(c2ncccc2O)=N1.[Na+] [Compound 1, (S)-4,5-dihydro-2-(3-hydroxy-2-pyridinyl)-4-methyl-4-thiazolecarboxylic acid]
relative percentages of the iron excreted in the bile and urine [bile/urine] [2]: 93/7 | time at which deferration had returned to baseline [2]: ≤ 12 h | relative percentages of the iron excreted in the feces and urine [feces/urine] (iron overloaded primates [3]; primates po 150 µmol/kg): 78/22 | nephrotoxicity (rats; rats po once daily 384 µmol/kg/d): severely nephrotoxic

C[C@]1(C(=O)[O-])CSC(c2ncc(O)cc2O)=N1.[Na+] [Compound 6, (S)-4,5-dihydro-2-(3,5-dihydroxy-2-pyridinyl)-4-methyl-4-thiazolecarboxylic acid]
relative percentages of the iron excreted in the feces and urine [feces/urine] (iron overloaded primates [4]): 58/42 | urinary Kim-1 ([1]; rats po 237 µmol/kg b.i.d., until day 5): < 50 ng/kg/24h

C[C@]1(C(=O)[O-])CSC(c2ccc(O)cc2O)=N1.[Na+] [Compound 3, (S)-2-(2,4-dihydroxyphenyl)-4,5-dihydro-4-methyl-4-thiazolecarboxylic acid]
renal findings in patients (patients): increases in blood urea nitrogen (BUN) and serum creatinine (SCr) levels; also recorded: induced proximal tubule nephrotoxicity

COCCOCCOc1ccnc(C2=N[C@@](C)(C(=O)[O-])CS2)c1O.[Na+] [Compound 10, (S)-4,5-dihydro-2-[3-hydroxy-4-(3,6-dioxaheptyloxy)-2-pyridinyl]-4-methyl-4-thiazolecarboxylic acid]
binding of the ligand to plasma [5]: little, if any, binding | binding of the ligand to plasma [6]: little, if any, binding | BUN [1]: well within the normal range | SCr [1]: well within the normal range

C[C@]1(C(=O)[O-])CSC(c2ccccc2O)=N1.[Na+] [Compound 2, (S)-4,5-dihydro-2-(2-hydroxyphenyl)-4-methyl-4-thiazolecarboxylic acid]
relative percentages of the iron excreted in the bile and urine [bile/urine] [2]: 100/0 | time at which deferration had returned to baseline [2]: ≤ 12 h | relative percentages of the iron excreted in the feces and urine [feces/urine] (iron overloaded primates [3]; primates po 75 µmol/kg): 76/24 | gastrointestinal toxicity [7]: serious gastrointestinal (GI) problems | nephrotoxicity [7]: not overtly nephrotoxic
